From patent US10821152B2, “Methods, agents and compositions for treatment of inflammatory conditions” (Betanien Hospital, priority 2014, dated 2020) come the findings set out here.

Non-standard residues stand in square brackets, D forms with d. Residues, ends and D or L forms follow the SMILES beside them. *: point of attachment. dPhe(4-NHCONH2) = NC(=O)Nc1ccc(C[C@@H](N)C(=O)O)cc1; Dihydroorotyl(S) = O=C1C[C@@H](C(=O)*)NC(=O)N1; dPhe(4-Cl) = N[C@H](Cc1ccc(Cl)cc1)C(=O)O; Phe(4-NH2) = Nc1ccc(C[C@H](N)C(=O)O)cc1; d2Nal = N[C@H](Cc1ccc2ccccc2c1)C(=O)O; Lys(iPr) = CC(C)NCCCC[C@H](N)C(=O)O; d3Pal = N[C@H](Cc1cccnc1)C(=O)O

Test [1] deals with patient with multiple sclerosis. Kind of test: Treatment of progressive multiple sclerosis with Degarelix, with concomitant Famprydine. The class given is in vivo, human. Particulars: MS patient. How it is done: • person, diagnosed with multiple sclerosis (MS). Their MS was of the progressive type; characterized by a steady deterioration in function. • Fulfilled the 2010 McDonald Criteria for the diagnosis of MS 1. Experimental Treatment • So far results of clinical trials for progressive MS have generally been disappointing. Currently, there is no FDA approved treatment for progressive MS disease. • December 2014 received first dose of Degarelix 240 mg sc. • Received Degarelix 80 mg s.c every two weeks thereafter. Difficulties in Assessing Response in Progressive MS • Almost all trials in progressive MS show a worsening in function over time. The primary endpoint of these trials is usually to be able to show less worsening in the active treatment group compared to the placebo/other treatment group. Worsening is often defined as an increase in the Expanded Disability Status Scale (EDSS). EDSS is severely restrictive as an outcome measure for trials in progressive sclerosis.^2 Trials have not shown improvements in the EDSS or function in MS patients.^2 Optimal outcome measures in progressive MS are open to debate. • Effective imaging outcomes in clinical trials have allowed for the development of treatments for the relapsing-remitting type of MS. […] One of the most important factors in choosing outcome measures for these patients is the meaningfulness to patients. Assessment of Response at 6 Weeks
This was particularly evident in their ability to raise their feet onto a step, physiotherapy exercises, and dressing. In the past year, they previously had always required their spouse's help to climb a step at home, or to carry out certain lower limb exercises with their physiotherapist. By 4 weeks of GnRH antagonist treatment, they no longer required their spouse's help/physiotherapist's help to perform these activities. They climbed onto a step unaided at […] checkup. The improvement started at around 4 weeks after the initiation of therapy, and continued to improve further by 6 weeks. Expanded Disability Status Scale (EDSS): • This patient's EDSS has remained stable at 6.5, as expected over such a short time period of 6 weeks. A score of 6.5 is equivalent to only being able to walk with the aid of a walker, as in their case. This was evident at baseline and 6 weeks. Multiple Sclerosis Impact Scale 29 (MSIS-29): • Patient-reported outcomes are of increasing importance in trials of progressive multiple sclerosis.^2The most frequently used global patient-reported outcome in multiple sclerosis is the MSIS-29.^3 This has been correlated with clinical and imaging metrics specifically in progressive forms of the disease.^4 According to a recent review,^2 patient reported outcomes in trials of progressive multiple sclerosis can be used to validate MRI or clinical metrics, and increased use of patient-reported outcomes in trials of progressive multiple sclerosis will expected to help satisfy regulators' requirements that treatments show relevant benefit for patients. • At baseline, they scored 121 on the MSIS-29. By 6 weeks, their score was reduced to 110. A clinically significant minimal difference is a score change of 8. Therefore this reduction of 11 in their score is considered clinically significant.^5 Multiple Sclerosis Walking Scale-12 (MSWS-12) • The MSWS-12^6 was designed as a disease-specific patient-based instrument for use in clinical trials and clinical practice, to capture the complex impact of MS on walking ability. […] One of the most important attributes of the MSWS-12 in comparison to other assessments of walking in MS patients, is its responsiveness to change. […] By 6 weeks, their score was reduced to 53. This is a 12% improvement. A minimal clinically significant difference has not yet been established. […]

Test [2] concerns patient with colitis. Kind of test: Treatment of inflammatory bowel disease (fecal calprotectin, partial Mayo score). The class given is in vivo, human. How it is done: • person, diagnosed with colitis • Inflammatory bowel disease, colitis verified on colonic biopsy sample. Patients with inflammatory colitis usually have a higher incidence of autoimmune diseases. This patient also had ankylosing spondylitis. Experimental Treatment • September 2014 received first dose of Degarelix 240 mg sc. • Received Degarelix 80 mg sc approximately every two weeks thereafter. Assessment of Response • The inflammatory bowel diseases (IBD's), Crohn's disease and ulcerative colitis, are chronic relapsing, remitting disorders. The assessment of disease activity presents challenges to clinicians. Fecal biomarkers, such as fecal calprotectin, are a non-invasive method which can be used to aid managing clinicians. Calprotectin is released extracellularly in times of cell stress or damage and can be detected within feces and thus be used as a sensitive marker of intestinal inflammation. […] Fecal calprotectin levels are elevated in patients with both Crohn's disease and ulcerative colitis 1-2. There have been several studies looking at the use of fecal calprotectin to predict or monitor response to treatment. • In a study looking at 11 patients with relapsing IBD, fecal calprotectin was analysed at inclusion and after 8 weeks of treatment. Treatment was individualized medical therapy. A normalized fecal calprotectin concentration at 8 weeks predicted a complete response in 100% of patients,3 corresponding to endoscopic mucosal healing4. It has been shown that in patients with steroid induced clinical remission fecal calprotectin levels can remain elevated5-6. […] A level of <50 mg/kg is considered normal or remission for IBD. • There is no gold standard index in the measurement of colitis disease activity in clinical trials. Due to the invasive nature of endoscopies, the Mayo non-invasive colitis assessment of response score can be used to assess treatment effect of IBD in clinical trials9-11. […] Both the partial Mayo and total Mayo score are used to assess disease activity in clinical trials13. The partial Mayo score also had good discriminatory value between subjects in remission and those with active disease14. A clinical response has been defined as a 3 point or greater change in the partial Mayo score15.

Consider `CC(=O)N[C@H](Cc1ccc2ccccc2c1)C(=O)N[C@H](Cc1ccc(Cl)cc1)C(=O)N[C@H](Cc1cccnc1)C(=O)N[C@@H](CO)C(=O)N[C@@H](Cc1ccc(NC(=O)[C@@H]2CC(=O)NC(=O)N2)cc1)C(=O)N[C@H](Cc1ccc(NC(N)=O)cc1)C(=O)N[C@@H](CC(C)C)C(=O)N[C@@H](CCCCNC(C)C)C(=O)N1CCC[C@H]1C(=O)N[C@H](C)C(N)=O` [Degarelix] (Ac-[d2Nal][dPhe(4-Cl)][d3Pal]S[Phe(4-NH2)](Dihydroorotyl(S))[dPhe(4-NHCONH2)]L[Lys(iPr)]P[dA]-NH2), for which the timed walk in test [1] (29 Apr. 2015, after discontinuing Famprydine on 5 Apr. 2015) stood at 14.0 s; in test [1] (by 2 months, with Famprydine), 14.0 s; in test [1] (by 4 months, with Famprydine), 11.9 s; in test [1] (by 5 months (30 Mar. 2015), with Famprydine), 11.8 s. The figures for the MFIS-5 in test [1] (baseline) and in test [1] (by 6 weeks) were 20 and 12, respectively. Further, the MSIS-29 is on record as 121 in test [1] (baseline) and 110 in test [1] (by 6 weeks). The MSWS-12 in test [1] (baseline) worked out at 60; in test [1] (by 6 weeks), 53. Besides, the “Expanded Disability Status Scale (EDSS)” value in test [1] (baseline and 6 weeks) is recorded as 6.5. Besides, the “Timed 25 Foot Walk (T25FW)” value in test [1] (baseline, stable Famprydine) turned out to be 16.7 s. For the same compound, the MFIS-5 reduction in test [1] (by 6 weeks) is 40%. This compound also registered an MSWS-12 improvement in test [1] (by 6 weeks) of 12%. The MSIS-29 score reduction in test [1] (by 6 weeks, clinically significant minimal difference 8) came to 11. Moreover, the “General function (patient reported)” value in test [1] (from around 4 weeks to 6 weeks) is reported as “a general improvement in their function”. In addition, the “Fecal calprotectin (<50 normal)” value in test [2] (02.10.14) is recorded as 48, normal mg/kg; in test [2] (10.01.15), 32, normal mg/kg; in test [2] (24.09.14 (started 10 Sep. 2014)), 79, high mg/kg. The “partial Mayo score” value stood at 0 in test [2] (at 12 weeks) and 3 in test [2] (baseline).
